Experimental data from US20060122282A1, “METHOD FOR TREATING SKIN DISORDERS WITH XANTHOPHYLLS” (priority 2004, published 2006).

Assay: blister healing of the skin (blisters raised, roofs cut off)
Type: in vivo, human
Conditions: topical application before raising the blister; alone or in combination with xanthophylls
Description: Experiments have been performed wherein blisters have been raised and the roofs cut off of the skins of individuals of various ages.

## CC1=C(/C=C/C(C)=C/C=C/C(C)=C/C(=O)O)C(C)(C)CCC1 [tretinoin, all-trans retinoic acid]
  healing time of blisters: halves
